Blank lines part the entries; values can stand above or below the compound they belong to. The source made the active and inactive calls. No cut-off for these calls is given here.
Assays:
MDA-MB-231 [1] = assay: Inhibition of Wnt/beta-Catenin signaling in drug-tolerant human MDA-MB-231/lapatinib cells assessed as reduction in cyclin D1 mRNA level at 20 uM incubated for 24 hrs by qRT-PCR analysis
MDA-MB-231 [2] = assay: Antitumor activity against drug-tolerant human MDA-MB-231/lapatinib cells injected in BALB/c mouse assessed as tumor development measured after 8 weeks; assay type: functional, cell-based
MDA-MB-231 [3] = assay: Antiproliferative activity against drug-tolerant human MDA-MB-231/lapatinib cells assessed as CD44-positive cells measured after 24 hrs by MTT assay; assay type: functional, cell-based; details: MDA-MB-231, 24 h
[4] = target: T1, Epidermal growth factor receptor (Homo sapiens, UniProt P00533); assay: Inhibition of exogenous EGFR (unknown origin)
T1 sequence (P00533 whole entry): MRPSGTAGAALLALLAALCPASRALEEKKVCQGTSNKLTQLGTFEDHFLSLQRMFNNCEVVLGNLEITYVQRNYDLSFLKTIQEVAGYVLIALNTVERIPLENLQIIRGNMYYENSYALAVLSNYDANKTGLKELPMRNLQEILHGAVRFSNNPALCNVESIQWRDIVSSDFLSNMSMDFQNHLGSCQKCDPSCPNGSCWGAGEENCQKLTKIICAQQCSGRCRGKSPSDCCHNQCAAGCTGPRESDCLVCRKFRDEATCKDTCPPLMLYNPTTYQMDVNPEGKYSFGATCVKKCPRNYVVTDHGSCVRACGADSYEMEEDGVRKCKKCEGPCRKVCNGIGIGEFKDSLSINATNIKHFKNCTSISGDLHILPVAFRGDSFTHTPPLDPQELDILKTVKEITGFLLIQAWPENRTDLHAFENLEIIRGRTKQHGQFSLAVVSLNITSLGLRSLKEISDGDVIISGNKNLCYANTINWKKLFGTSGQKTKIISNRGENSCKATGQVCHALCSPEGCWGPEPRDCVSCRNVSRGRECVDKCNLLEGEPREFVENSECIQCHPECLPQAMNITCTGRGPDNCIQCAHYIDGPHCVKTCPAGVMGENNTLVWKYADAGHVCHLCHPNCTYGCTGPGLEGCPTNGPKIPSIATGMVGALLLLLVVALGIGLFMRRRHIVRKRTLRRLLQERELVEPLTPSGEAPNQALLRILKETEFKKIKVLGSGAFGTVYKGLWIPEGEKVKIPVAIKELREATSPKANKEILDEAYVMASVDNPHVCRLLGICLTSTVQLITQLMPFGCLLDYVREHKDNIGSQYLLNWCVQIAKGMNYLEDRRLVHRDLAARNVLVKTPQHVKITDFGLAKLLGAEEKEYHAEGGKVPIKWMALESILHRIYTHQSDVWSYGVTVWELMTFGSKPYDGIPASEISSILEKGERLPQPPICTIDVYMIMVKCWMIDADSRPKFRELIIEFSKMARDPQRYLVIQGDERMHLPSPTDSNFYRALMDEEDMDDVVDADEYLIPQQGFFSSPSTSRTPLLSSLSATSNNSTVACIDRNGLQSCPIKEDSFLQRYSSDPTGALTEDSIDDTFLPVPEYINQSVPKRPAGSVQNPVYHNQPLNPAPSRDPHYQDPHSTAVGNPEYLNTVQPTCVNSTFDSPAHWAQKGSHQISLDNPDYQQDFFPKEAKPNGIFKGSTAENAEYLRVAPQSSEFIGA

MDA-MB-231 [5] = assay: Inhibition of Wnt/beta-Catenin signaling in drug-tolerant human MDA-MB-231/lapatinib cells assessed as reduction in beta-catenin level at 20 uM incubated for 24 hrs by Western blot analysis
MCF7 = assay: Antiproliferative activity against human MCF7 cells assessed as inhibition of cell growth measured after 72 hrs by MTT assay; assay type: functional, cell-based; details: MCF7, 72 h
MDA-MB-231 [6] = assay: Antiproliferative activity against human drug tolerant MDA-MB-231/lapatinib cells assessed as inhibition of cell growth in measured after 72 hrs by MTT assay; assay type: functional, cell-based; details: MDA-MB-231, 72 h
[7] = target: T1, Epidermal growth factor receptor; assay: Inhibition of human EGFR in human drug-tolerant MDA-MB-231/lapatinib cells assessed as inhibition of phosphorylation Akt1/2/3 at Ser473 of measured after 24 hrs by Western blot analysis; details: dose 5-20 µM
MDA-MB-231 [8] = assay: Inhibition of Wnt/beta-Catenin signaling in drug-tolerant human MDA-MB-231/lapatinib cells assessed as reduction in p-GSK3beta level at 20 uM incubated for 24 hrs by Western blot analysis
MDA-MB-231 [9] = assay: Inhibition of cell stemness in human drug-tolerant MDA-MB-231/lapatinib cells assessed as inhibition of OCT4 expression at 20 uM after 24 hrs by qRT-PCR analysis; assay type: functional, cell-based
MDA-MB-231 [10] = assay: Inhibition of colony formation in human drug-tolerant MDA-MB-231/lapatinib cells at 5 uM measured after 24 hrs; assay type: functional
MDA-MB-231 [11] = assay: Inhibition of cell stemness in human drug-tolerant MDA-MB-231/lapatinib cells assessed as inhibition of Kif4 expression at 20 uM after 24 hrs by qRT-PCR analysis; assay type: functional, cell-based
MDA-MB-231 [12] = assay: Inhibition of cell migration in human drug-tolerant MDA-MB-231/lapatinib cells at 20 uM; assay type: functional
[13] = target: T1, Epidermal growth factor receptor; assay: Inhibition of human EGFR in human MDA-MB-231 cells assessed as inhibition of phosphorylation ERK1/2 at T202/Y204 of measured after 24 hrs by Western blot analysis; assay type: cell-based; details: dose 5-20 µM
MDA-MB-231 [14] = assay: Inhibition of cell stemness in human drug-tolerant MDA-MB-231/lapatinib cells assessed as inhibition of SOX-2 expression at 20 uM after 24 hrs by qRT-PCR analysis; assay type: functional, cell-based
MDA-MB-231 [15] = assay: Inhibition of Wnt/beta-Catenin signaling in drug-tolerant human MDA-MB-231/lapatinib cells assessed as reduction in c-Myc mRNA level at 20 uM incubated for 24 hrs by qRT-PCR analysis
MDA-MB-231 [16] = assay: Potency index, ratio of lapatinib IC50 to test compound IC50 for induction of apoptosis in drug-tolerant human MDA-MB-231 cells/lapatinib cells assessed as apoptotic rate at 20 uM measured after 24 hrs by flow cytometry; assay type: functional
MDA-MB-231 [17] = assay: Cell cycle arrest in human MDA-MB-231 cells assessed as accumulation at G2-M phase at 20 uM incubated for 24 hrs by PI staining based flow cytometry; assay type: functional
[18] = target: T1, Epidermal growth factor receptor; assay: Inhibition of human EGFR phosphorylation in human drug-tolerant MDA-MB-231/lapatinib cells measured after 24 hrs by Western blot analysis; details: dose 5-20 µM
[19] = target: T1, Epidermal growth factor receptor; assay: Inhibition of human EGFR in human drug-tolerant MDA-MB-231/lapatinib cells assessed as inhibition of phosphorylation ERK1/2 at T202/Y204 of measured after 24 hrs by Western blot analysis; details: dose 5-20 µM
[20] = Octanol/water partition coefficient, log P of the compound by shake flask method based thermodynamic solubility assay; assay type: physicochemical
[21] = Resistant factor, ratio of IC50 for antiproliferative activity against drug-tolerant human MDA-MB-231 cells to IC50 for human MDA-MB-231 cells; assay type: functional
[22] = target: T1, Epidermal growth factor receptor; assay: Inhibition of human EGFR phosphorylation in human MDA-MB-231 cells measured after 24 hrs by Western blot analysis; assay type: cell-based; details: dose 5-20 µM
MDA-MB-231 [23] = assay: Inhibition of cell stemness in drug-tolerant human MDA-MB-231/lapatinib cells assessed as inhibition of Notch expression at 20 uM after 24 hrs by flow cytometry; assay type: functional, cell-based
MDA-MB-231 [24] = assay: Inhibition of cell invasion in human MDA-MB-231/lapatinib cells at 20 uM; assay type: functional
MDA-MB-231 [25] = assay: Cell cycle arrest in human drug-tolerant MDA-MB-231/lapatinib cells assessed as increase in accumulation at S phase at 20 uM incubated for 24 hrs […]; assay type: functional, cell-based
MDA-MB-231 [26] = assay: Inhibition of Wnt/beta-Catenin signaling in drug-tolerant human MDA-MB-231/lapatinib cells assessed as reduction in MMP7 mRNA level at 20 uM incubated for 24 hrs by qRT-PCR analysis; assay type: tissue-based
MDA-MB-231 [27] = assay: Induction of apoptosis in drug-tolerant human MDA-MB-231 cells/lapatinib cells assessed as apoptotic rate at 20 uM measured after 24 hrs by flow cytometry; assay type: functional
MDA-MB-231 [28] = assay: Inhibition of cell stemness in human drug-tolerant MDA-MB-231/lapatinib cells assessed as inhibition of CD44+/CD24- expression at 20 uM after 24 hrs by flow cytometry analysis; assay type: functional
[29] = target: T1, Epidermal growth factor receptor; assay: Inhibition of human EGFR in human MDA-MB-231 cells assessed as inhibition of phosphorylation Akt1/2/3 at Ser473 of measured after 24 hrs by Western blot analysis; assay type: cell-based; details: dose 5-20 µM
MDA-MB-231 [30] = assay: Cell cycle arrest in human drug-tolerant MDA-MB-231/lapatinib cells assessed as accumulation at G2-M phase at 20 uM incubated for 24 hrs by PI staining based flow cytometry; assay type: functional
MDA-MB-231 [31] = assay: Antiproliferative activity against human MDA-MB-231 cells assessed as inhibition of cell growth measured after 72 hrs by MTT assay; assay type: functional, cell-based; details: MDA-MB-231, 72 h
MDA-MB-231 [32] = assay: Inhibition of Wnt/beta-Catenin signaling in drug-tolerant human MDA-MB-231/lapatinib cells assessed as reduction in S100A4 mRNA level at 20 uM incubated for 24 hrs by qRT-PCR analysis
MDA-MB-231 [33] = assay: Inhibition of cell stemness in drug-tolerant human MDA-MB-231/lapatinib cells assessed as inhibition of Jagged expression at 20 uM after 24 hrs by flow cytometry; assay type: functional, cell-based
[34] = target: T2, Aldehyde dehydrogenase 1A1 (Homo sapiens, UniProt P00352); assay: Inhibition of ALDH1A1 in human drug-tolerant MDA-MB-231/lapatinib cells assessed as after 24 hrs
T2 sequence (P00352 whole entry): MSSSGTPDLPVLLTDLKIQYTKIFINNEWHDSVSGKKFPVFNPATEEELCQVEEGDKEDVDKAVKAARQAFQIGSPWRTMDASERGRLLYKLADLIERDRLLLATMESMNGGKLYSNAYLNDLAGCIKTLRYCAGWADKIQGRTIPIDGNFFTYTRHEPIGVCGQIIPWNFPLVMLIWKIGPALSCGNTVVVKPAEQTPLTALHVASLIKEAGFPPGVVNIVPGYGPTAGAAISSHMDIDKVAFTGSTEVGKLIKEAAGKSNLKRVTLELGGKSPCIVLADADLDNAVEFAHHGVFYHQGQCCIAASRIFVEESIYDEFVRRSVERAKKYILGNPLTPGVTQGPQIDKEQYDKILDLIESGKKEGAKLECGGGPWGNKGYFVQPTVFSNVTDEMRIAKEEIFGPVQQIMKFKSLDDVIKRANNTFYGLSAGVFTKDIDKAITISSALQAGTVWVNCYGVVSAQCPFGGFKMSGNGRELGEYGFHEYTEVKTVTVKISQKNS

MDA-MB-231 [35] = assay: Induction apoptosis in MDA-MB-231/ lapatinib cells assessed as apoptotic cells at 20 uM measured after 24 hrs by propidium iodide staining based flow cytometric analysis; assay type: functional, cell-based; details: Homo sapiens
HUVEC = assay: Antiproliferative activity against human HUVEC cells assessed as inhibition of cell growth in measured after 72 hrs by MTT assay; assay type: cell-based
MDA-MB-231 [36] = assay: Inhibition of Wnt/beta-Catenin signaling in drug-tolerant human MDA-MB-231/lapatinib cells assessed as increase in nuclear expression of p-beta-catenin level at 20 uM incubated for 24 hrs by Western blot analysis
MDA-MB-231 [37] = assay: Cell cycle arrest in human MDA-MB-231 cells assessed as increase in accumulation at S phase at 20 uM incubated for 24 hrs by PI staining based flow cytometry; assay type: functional
MDA-MB-231 [38] = assay: Antiproliferative activity against drug-tolerant human MDA-MB-231/lapatinib cells assessed as CD44+/CD24- cells measured at 20 uM after 24 hrs by MTT assay; assay type: functional

IC50 [4]: 0.0105 µM
IC50 (MCF7): 3.62 µM
inhibition [13]: Active
logP [20]: 2.49
inhibition [22]: Dose-Dependent Effect
inhibition [29]: Active
IC50 (MDA-MB-231 [31]): 1.54 µM
Compound: CS(=O)(=O)CCN(Cc1ccc(-c2ccc3ncnc(Nc4ccc(OCc5cccc(F)c5)c(Cl)c4)c3c2)o1)C(=O)CCC(=O)OCCN1CCN(CCCN2c3ccccc3Sc3ccc(Cl)cc32)CC1
inhibition (MDA-MB-231 [1]): Active
Activity (MDA-MB-231 [2]): Active
IC50 (MDA-MB-231 [3]): 0.56 µM
inhibition (MDA-MB-231 [5]): Active
IC50 (MDA-MB-231 [6]): 1.03 µM
inhibition [7]: Dose-Dependent Effect
inhibition (MDA-MB-231 [8]): Active
inhibition (MDA-MB-231 [9]): Active
inhibition at 5 µM (MDA-MB-231 [10]): 10.9%
inhibition (MDA-MB-231 [11]): Active
inhibition at 20 µM (MDA-MB-231 [12]): 13.2%
inhibition (MDA-MB-231 [14]): Active
inhibition (MDA-MB-231 [15]): Active
Ratio IC50 (MDA-MB-231 [16]): 2.23
Activity (MDA-MB-231 [17]): Active
inhibition [18]: Dose-Dependent Effect
inhibition [19]: Dose-Dependent Effect
Ratio IC50 [21]: 0.67
inhibition (MDA-MB-231 [23]): Active
inhibition at 20 µM (MDA-MB-231 [24]): 56.3%
Activity (MDA-MB-231 [25]): Active
inhibition (MDA-MB-231 [26]): Active
Activity (MDA-MB-231 [27]): 72%
inhibition at 20 µM (MDA-MB-231 [28]): 0.56%
Activity (MDA-MB-231 [30]): Active
inhibition (MDA-MB-231 [32]): Active
inhibition (MDA-MB-231 [33]): Active
IC50 [34]: 0.0864 µM
Activity (MDA-MB-231 [35]): Active
IC50 (HUVEC): 89.2 µM
inhibition (MDA-MB-231 [36]): Active
Activity (MDA-MB-231 [37]): Active
inhibition at 20 µM (MDA-MB-231 [38]): 72.9%

IC50 (MCF7): 6.38 µM
IC50 (MDA-MB-231 [31]): 2.98 µM
Compound: CS(=O)(=O)CCN(Cc1ccc(-c2ccc3ncnc(Nc4ccc(OCc5cccc(F)c5)c(Cl)c4)c3c2)o1)C(=O)CCC(=O)OCCN1CCN(CCCN2c3ccccc3Sc3ccc(C(F)(F)F)cc32)CC1
IC50 (MDA-MB-231 [6]): 3.42 µM
Ratio IC50 [21]: 1.17
IC50 (HUVEC): 39.6 µM

IC50 (MCF7): 35.8 µM
IC50 (MDA-MB-231 [31]): 30.4 µM
Compound: OCCN1CCN(CCCN2c3ccccc3Sc3ccc(Cl)cc32)CC1 [PERPHENAZINE]
IC50 (MDA-MB-231 [6]): 31.8 µM
Ratio IC50 [21]: 1.05
IC50 [34]: 0.524 µM
IC50 (HUVEC): 97.8 µM

IC50 (MCF7): 11.4 µM
IC50 (MDA-MB-231 [31]): 11 µM
Compound: CC(=O)c1cc2c(o1)C(=O)c1ccccc1C2=O [NAPABUCASIN]
IC50 (MDA-MB-231 [6]): 9.68 µM
Ratio IC50 [21]: 0.88
IC50 [34]: 0.425 µM
IC50 (HUVEC): 41.3 µM
